From the NIST ThermoML archive (doi:10.1016/j.fluid.2013.06.021)

Test: xn = mol fraction of the nth substance listed
Details: 101 kPa, Liquid; for speed of sound: Sing-around technique in a fixed-path interferometer; for mass density: Vibrating tube method; for viscosity: Capillary tube (Ostwald / Ubbelohde) method

CCCCOCCO [2-butoxyethan-1-ol] + CCCCO
Details	mass density, 293.15 K [kg/m3]	mass density, 298.15 K [kg/m3]	speed of sound, 293.15 K [m/s]	speed of sound, 298.15 K [m/s]	speed of sound, 303.15 K [m/s]	viscosity, 298.15 K [mPa·s]	viscosity, 303.15 K [mPa·s]
x1 = 0.0516	816.39	812.543	1262.2	1245.2	1228.5	2.586	2.269
x1 = 0.1011	822.44	818.58	1266.6	1249.7	1233	2.553	2.243
x1 = 0.1535	828.64	824.722	1271.1	1254.2	1237.5	2.536	2.235
x1 = 0.2027	834.27	830.281	1275.2	1258.3	1241.5	2.524	2.234
x1 = 0.2537	839.84	835.832	1279.2	1262.3	1245.5	2.516	2.229
x1 = 0.3027	844.99	840.96	1282.9	1266.1	1249.1	–	–
x1 = 0.3028	–	–	–	–	–	2.516	2.235
x1 = 0.4	854.57	850.503	1289.8	1272.9	1255.9	2.527	2.255
x1 = 0.5055	864.12	860.043	1296.7	1279.7	–	2.555	2.303
x1 = 0.6054	872.48	868.393	1302.5	1285.6	–	2.592	2.345
x1 = 0.7025	880.07	875.94	1307.9	1290.9	–	2.645	2.401
x1 = 0.8042	887.49	883.317	1313.2	1296.2	–	2.703	2.475
x1 = 0.8552	891.03	886.83	1315.9	1298.8	–	2.743	2.518
x1 = 0.906	894.44	890.248	1318.5	1301.4	–	2.785	2.564
x1 = 0.9526	897.48	893.29	1320.9	1303.8	–	2.835	2.607
